Test results reported in patent US20130225830A1, “POLYMORPHS OF FEBUXOSTAT” (MAPI PHARMA LIMITED, priority 2010, published 2013).
Several values for one entry are separate records, joined by “and”; a condition that tells them apart may be missing. Equal values may be shown once.

Experiments:
Assay type in all cases: physicochemical
[1] = Solid stability measurements (appearance, assay and total related substances by HPLC); settings: for Remaining (%): one value for both samples, vs −20° C. control; for Appearance / TRS (%): samples 1 and 2
Experimental: The detailed chromatographic conditions are listed hereinbelow. The typical retention time of febuxostat main peak is 8.2 min. [table] Testing conditions: 40° C., 60° C., 40° C./RH 75%, 60° C./RH 75%, light Testing procedure: About 3 mg of a febuxostat form were weighed in a glass vial and stored under the different conditions for 1 week and 2 weeks, separately. The same febuxostat form was stored at −20° C. as control. The test was conducted in duplication. The physical appearance, assay and total related substances of each of the febuxostat forms were measured by HPLC at the end of the first and second weeks.

[2] = Physical stability measurements (XRPD, DSC, TGA)
Experimental: Testing conditions: 40° C., 60° C., 40° C./RH 75%, 60° C./RH 75%, light
Testing procedure: About 50 mg of a febuxostat form were weighed in glass vial for testing the physical stability and were stored under different conditions for 1 week and 2 weeks, separately. The same febuxostat form was stored at −20° C. as control. XRPD, DSC and TGA of each of the febuxostat forms were measured at the end of the first and second weeks.

[3] = Hygroscopicity measurements (DVS sorption/desorption profiles); settings: 25° C.
Experimental: The sorption/desorption profiles of the forms of the present invention were tested at 25° C. under 0-90% relative humidity. The forms of the present invention were classified according to the following criteria: Deliquescent: Sufficient water is absorbed to form a liquid. […] Hygroscopic: Increase in mass is less than 15% and equal to or greater than 2%. Slightly hygroscopic: Increase in mass is less than 2% and equal to or greater than 0.2%. Non-hygroscopic: Increase in mass is less than 0.2%.

[4] = Bulk and tapped density measurements
Experimental: Bulk density testing: A febuxostat form in an amount which is sufficient to complete the test was passed through a 1.0 mm (No. 18) screen to break up agglomerates that may have formed during storage. The febuxostat form was then weighed (M) and the powder was added into a 10 mL graduated cylinder. The powder was carefully leveled without compacting, and the unsettled apparent volume, Vo, was read. The bulk density, in g per mL, was calculated by the formula: Bulk Density=M/Vo Tapped density testing: A febuxostat form in an amount which is sufficient to complete the test was passed through a 1.0 mm (No. 18) screen to break up agglomerates that may have formed during storage. The febuxostat form was then weighed and the powder was added into a 10 mL graduated cylinder. The powder was carefully leveled without compacting. The cylinder was tapped 500 times initially and the tapped volume, Va, was measured to the nearest graduated unit. The tapping was then repeated for additional 750 times and the tapped volume, Vb, was measured to the nearest graduated unit. If the difference between the two volumes was less than 2%, Vb was taken as the final tapped volume, Vf. The tapped density, in g per mL, was calculated by the formula: Tapped Density=M/Vf

**Q.** With `Cc1nc(-c2ccc(OCC(C)C)c(C#N)c2)sc1C(=O)O` [Form XI, 2-(3-cyano-4-isobutoxyphenyl)-4-methyl-5-thiazolecarboxylic acid] as the molecule, how does the “change of assay and TRS (in words)” value ([1]; 40° C., 60° C., 40° C./75% RH, 60° C./75% RH at end of the first and second weeks) read?
**A.** no significant change

**Q.** What about the “Remaining (%)” value ([1]; 40° C., 7 d) of the same molecule?
**A.** 99.02%

**Q.** And the Appearance ([1]; 40° C., 7 d)?
**A.** No change

**Q.** What about the “TRS (%)” value ([1]; 40° C., 7 d) of the same molecule?
**A.** 1.25% and 1.24%

**Q.** What about the “Remaining (%)” value ([1]; 40° C., 14 d) of the same molecule?
**A.** 100.12%

**Q.** And the Appearance ([1]; 40° C., 14 d)?
**A.** No change

**Q.** What about the “TRS (%)” value ([1]; 40° C., 14 d) of the same molecule?
**A.** 1.26% and 1.27%

**Q.** What about the “Remaining (%)” value ([1]; 40° C./75% RH, 7 d) of the same molecule?
**A.** 99.02%

**Q.** And the Appearance ([1]; 40° C./75% RH, 7 d)?
**A.** No change

**Q.** What about the “TRS (%)” value ([1]; 40° C./75% RH, 7 d) of the same molecule?
**A.** 1.28%

**Q.** And the “Remaining (%)” value ([1]; 40° C./75% RH, 14 d)?
**A.** 100.75%

**Q.** What about the Appearance ([1]; 40° C./75% RH, 14 d) of the same molecule?
**A.** No change

**Q.** What about the “TRS (%)” value ([1]; 40° C./75% RH, 14 d) of the same molecule?
**A.** 1.30% and 1.29%

**Q.** What about the “Remaining (%)” value ([1]; 60° C., 7 d) of the same molecule?
**A.** 98.56%

**Q.** What about the Appearance ([1]; 60° C., 7 d) of the same molecule?
**A.** No change

**Q.** And the “TRS (%)” value ([1]; 60° C., 7 d)?
**A.** 1.31% and 1.30%

**Q.** And the “Remaining (%)” value ([1]; 60° C., 14 d)?
**A.** 99.72%

**Q.** And the Appearance ([1]; 60° C., 14 d)?
**A.** No change

**Q.** What about the “TRS (%)” value ([1]; 60° C., 14 d) of the same molecule?
**A.** 1.33%

**Q.** What about the “Remaining (%)” value ([1]; 60° C./75% RH, 7 d) of the same molecule?
**A.** 98.44%

**Q.** What about the Appearance ([1]; 60° C./75% RH, 7 d) of the same molecule?
**A.** No change

**Q.** And the “TRS (%)” value ([1]; 60° C./75% RH, 7 d)?
**A.** 1.33% and 1.31%

**Q.** What about the “Remaining (%)” value ([1]; 60° C./75% RH, 14 d) of the same molecule?
**A.** 99.82%

**Q.** What about the Appearance ([1]; 60° C./75% RH, 14 d) of the same molecule?
**A.** No change

**Q.** What about the “TRS (%)” value ([1]; 60° C./75% RH, 14 d) of the same molecule?
**A.** 1.35% and 1.36%

**Q.** And the “Remaining (%)” value ([1]; Light, 7 d)?
**A.** 96.26%

**Q.** What about the Appearance ([1]; Light, 7 d) of the same molecule?
**A.** Light yellow

**Q.** And the “TRS (%)” value ([1]; Light, 7 d)?
**A.** 1.86% and 2.09%

**Q.** And the “Remaining (%)” value ([1]; Light, 14 d)?
**A.** 95.06%

**Q.** And the Appearance ([1]; Light, 14 d)?
**A.** Light yellow

**Q.** And the “TRS (%)” value ([1]; Light, 14 d)?
**A.** 4.88% and 4.32%

**Q.** And the Appearance ([1]; −20° C. (control), 7 d)?
**A.** No change

**Q.** What about the “TRS (%)” value ([1]; −20° C. (control), 7 d) of the same molecule?
**A.** 1.22%

**Q.** What about the Appearance ([1]; −20° C. (control), 14 d) of the same molecule?
**A.** No change

**Q.** And the “TRS (%)” value ([1]; −20° C. (control), 14 d)?
**A.** 1.23%

**Q.** What about the “physical stability (XRPD, DSC, TGA)” value ([2]; 40° C., 60° C. and light at the end of the first and second week) of the same molecule?
**A.** stable

**Q.** What about the “physical stability (XRPD, DSC, TGA), form conversion” value (shortened to “physical stability … form conversion”) ([2]; 40° C./75% RH at the end of the first week) of the same molecule?
**A.** completely converted to form G

**Q.** And the “physical stability … form conversion” value ([2]; 40° C./75% RH at the end of the second week)?
**A.** completely converted to form G

**Q.** And the “physical stability … form conversion” value ([2]; 60° C./75% RH at the end of the first and second weeks)?
**A.** completely converted to form G

**Q.** What about the Hygroscopicity classification ([3]; 0-90% relative humidity) of the same molecule?
**A.** hygroscopic

**Q.** And the “Change in Mass (%) - ref, Desorption” value ([3]; Target % P/P0 0.0)?
**A.** −0.052%

**Q.** And the “Change in Mass (%) - ref, Sorption” value ([3]; Target % P/P0 0.0)?
**A.** 0.001%

**Q.** What about the “Change in Mass (%) - ref, Desorption” value ([3]; Target % P/P0 10.0) of the same molecule?
**A.** 0.973%

**Q.** What about the “Change in Mass (%) - ref, Hysteresis” value ([3]; Target % P/P0 10.0) of the same molecule?
**A.** 0.164%

**Q.** And the “Change in Mass (%) - ref, Sorption” value ([3]; Target % P/P0 10.0)?
**A.** 0.810%

**Q.** What about the “Change in Mass (%) - ref, Desorption” value ([3]; Target % P/P0 20.0) of the same molecule?
**A.** 1.210%

**Q.** What about the “Change in Mass (%) - ref, Hysteresis” value ([3]; Target % P/P0 20.0) of the same molecule?
**A.** 0.146%

**Q.** And the “Change in Mass (%) - ref, Sorption” value ([3]; Target % P/P0 20.0)?
**A.** 1.064%

**Q.** What about the “Change in Mass (%) - ref, Desorption” value ([3]; Target % P/P0 30.0) of the same molecule?
**A.** 1.425%

**Q.** And the “Change in Mass (%) - ref, Hysteresis” value ([3]; Target % P/P0 30.0)?
**A.** 0.203%

**Q.** And the “Change in Mass (%) - ref, Sorption” value ([3]; Target % P/P0 30.0)?
**A.** 1.222%

**Q.** What about the “Change in Mass (%) - ref, Desorption” value ([3]; Target % P/P0 40.0) of the same molecule?
**A.** 1.560%

**Q.** What about the “Change in Mass (%) - ref, Hysteresis” value ([3]; Target % P/P0 40.0) of the same molecule?
**A.** 0.150%

**Q.** What about the “Change in Mass (%) - ref, Sorption” value ([3]; Target % P/P0 40.0) of the same molecule?
**A.** 1.410%

**Q.** What about the “Change in Mass (%) - ref, Desorption” value ([3]; Target % P/P0 50.0) of the same molecule?
**A.** 1.728%

**Q.** What about the “Change in Mass (%) - ref, Hysteresis” value ([3]; Target % P/P0 50.0) of the same molecule?
**A.** 0.169%

**Q.** And the “Change in Mass (%) - ref, Sorption” value ([3]; Target % P/P0 50.0)?
**A.** 1.559%

**Q.** And the “Change in Mass (%) - ref, Desorption” value ([3]; Target % P/P0 60.0)?
**A.** 1.948%

**Q.** What about the “Change in Mass (%) - ref, Hysteresis” value ([3]; Target % P/P0 60.0) of the same molecule?
**A.** 0.166%

**Q.** What about the “Change in Mass (%) - ref, Sorption” value ([3]; Target % P/P0 60.0) of the same molecule?
**A.** 1.782%

**Q.** And the “Change in Mass (%) - ref, Desorption” value ([3]; Target % P/P0 70.0)?
**A.** 2.187%

**Q.** And the “Change in Mass (%) - ref, Hysteresis” value ([3]; Target % P/P0 70.0)?
**A.** 0.130%

**Q.** And the “Change in Mass (%) - ref, Sorption” value ([3]; Target % P/P0 70.0)?
**A.** 2.057%

**Q.** And the “Change in Mass (%) - ref, Desorption” value ([3]; Target % P/P0 80.0)?
**A.** 2.503%

**Q.** What about the “Change in Mass (%) - ref, Hysteresis” value ([3]; Target % P/P0 80.0) of the same molecule?
**A.** 0.089%

**Q.** And the “Change in Mass (%) - ref, Sorption” value ([3]; Target % P/P0 80.0)?
**A.** 2.414%

**Q.** And the “Change in Mass (%) - ref, Desorption” value ([3]; Target % P/P0 90.0)?
**A.** 3.111%

**Q.** And the “Change in Mass (%) - ref, Sorption” value ([3]; Target % P/P0 90.0)?
**A.** 3.111%

**Q.** What about the “Bulk Density” value [4] of the same molecule?
**A.** 0.346 g/mL

**Q.** And the “Tapped Density” value [4]?
**A.** 0.553 g/mL

**Q.** And the “bulk and tapped densities (in words)” value ([4]; compared among forms V, IX, XI and form G)?
**A.** adequate bulk and tapped densities
